Assay results from patent US20140350273A1, “PEDIATRIC USES OF CABAZITAXEL” (AVENTIS PHARMA S.A., priority 2012, published 2014).
Where two headings read alike, the source gives them in different places.

Test system: human Ewing's sarcoma SK-ES-1
Assay type: in vivo
Parameters: Tumor volume changes from baseline: Median (nMad): unit not given here
Description: This efficacy may be quantified, for example, as changes in tumor volume for each treated (T) and control (C) group, which are calculated for each animal and each day by subtracting the tumor volume on the day of first treatment (staging day) from the tumor volume on the specified observation day. This allows calculating the tumor growth inhibition: ΔT/ΔC=(median delta T/median delta C)×100. Individual tumor volume changes from baseline are thereafter analyzed by a non-parametric two-way ANOVA-TYPE (with factors: group and repeated days) followed by a post-hoc contrasts analysis, with Bonferroni-Holm adjustment for multiplicity, comparing all treated groups to the control group. […] A probability less than 5% (p<0.05) was considered as significant.
Based on the National Cancer Institute (NCl) standards, a ΔT/ΔC≦40% is the minimal level required to declare activity.
The tumor doubling time (in days; Td) was estimated from the plot of the log linear growth of the control group tumors in exponential growth (100 to 1000 mm^3 range) [T. H. Corbett et al., Cancer, 40: 2660-2680 (1977); F. M. Schabel et al., Cancer Drug Development, Part B, Methods in Cancer Research, 17: 3-51, New York, Academic Press Inc. (1979)].
This efficacy may also be quantified by the number of tumor regressions observed after therapy. Individual mice reporting a tumor volume ≦50% of the Day 0 measurement for two consecutive measurements over a seven day period were considered partial responders (PR). Individual mice lacking palpable tumors (<4×4 mm^2 for two consecutive measurements over a seven day period) were classified as complete responders (CR); a CR that persisted until study completion was considered a tumor-free survivor (TFS).
The efficacy of cabazitaxel in comparison with docetaxel on pediatric solid tumors was determined experimentally in the following manner:
The animals subjected to the experiment are subcutaneously grafted unilaterally with approximately 30 mg of a tumor fragment on day 0. The animals are implanted with a human tumor xenografted in immunocompromized mice. Several days post tumor implantation, mice are randomized according to their body weight to the different groups of treatments and controls. The animals are observed every day. The different animal groups are weighed daily during treatment until the maximum weight loss is reached and subsequent full weight recovery has occurred. The groups are then weighed once or twice a week until the end of the trial.
The tumors are measured 1 to 5 times a week, depending on the tumor doubling time, until the tumor reaches approximately 1,000 mm^3, or until the animal dies (if this occurs before the tumor reaches 1,000 mm^3). The animals are necropsied immediately after euthanasia or death.
The selected tumor model was a human Ewing's sarcoma SK-ES-1, xenografted in SCID mice [Fogh J. New York: Plenum Press, 1975].
Cabazitaxel and docetaxel were weighed for each treatment and dissolved in ethanol. Treatment solutions were prepared first by mixing 1 volume of ethanolic stock solution and 1 volume of polysorbate 80, then by adding 18 volumes of glucose 5% in water.
The Td in days was estimated from the plot of the log linear growth of the control group tumors in exponential growth (100 to 1,000 mm^3 range) and the number of tumor regressions observed after therapy.
The following end points have been used: • Toxicity was declared at dosages inducing ≧20% body weight loss or ≧10% drug death; • Relative tumor growth inhibition was determined on day 22 post tumor implantation when the median tumor size in the control group was 456 mm^3; • Antitumor efficacy was determined by calculating the ΔT/ΔC value in percent, according to the above-mentioned formula; • Tumor regressions (as explained above); • Statistical analysis performed (as explained above).

[1] = 3.5 mg/kg per injection (total 7.0) IV days 15; 19
[2] = 5.6 mg/kg per injection (total 11.2) IV days 15; 19
[3] = 5.6 mg/kg per injection (total 11.2) IV days 15; 19; listed as CABAZITAXEL
[4] = 9.0 mg/kg per injection (total 18) IV days 15; 19
[5] = 9.0 mg/kg per injection (total 18) IV days 15; 19; listed as CABAZITAXEL
[6] = 14.5 mg/kg per injection (total 29) IV days 15; 19
[7] = 14.5 mg/kg per injection (total 29) IV days 15; 19; listed as CABAZITAXEL

Q: How did the “Average body weight change in % per mouse at nadir” value [1] turn out when `CO[C@H]1C(=O)[C@]2(C)[C@@H](OC)C[C@H]3OC[C@@]3(OC(C)=O)[C@H]2[C@H](OC(=O)c2ccccc2)[C@]2(O)C[C@H](OC(=O)[C@H](O)[C@@H](NC(=O)OC(C)(C)C)c3ccccc3)C(C)=C1C2(C)C` [Cabazitaxel, 4α-acetoxy-2α-benzoyloxy-5β,20-epoxy-1β-hydroxy-7β,10β-dimethoxy-9-oxo-11-taxen-13α-yl (2R,3S)-3-tert-butoxycarbonyl-amino-2-hydroxy-3-phenylpropionate] was run?
A: −4.4%

Q: And the Biological interpretation [1]?
A: active

Q: What about the Drug death [1] of the same molecule?
A: 0/7

Q: And the “Regressions Complete” value [1]?
A: 0/7

Q: And the “Regressions Partial” value [1]?
A: 0/7

Q: What about the “Tumor free survivors at day 120” value [1] of the same molecule?
A: 0/7

Q: And the day of nadir [1]?
A: 16 days

Q: What about the “ΔT/ΔC in % (day 22)” value [1] of the same molecule?
A: 22%

Q: What about the Biological interpretation (3.5 mg/kg per injection (total 7.0) IV days 15; 19; listed as CABAZITAXEL) of the same molecule?
A: Active

Q: And the “Tumor volume changes from baseline: Median (nMad)” value (shortened to “Tumor volume changes from baseline”) (3.5 mg/kg, day 19)?
A: 32

Q: What about the “Tumor volume changes from baseline” value (3.5 mg/kg, day 22) of the same molecule?
A: 41

Q: And the “Tumor volume changes from baseline” value (3.5 mg/kg, day 25)?
A: 180

Q: And the “Tumor volume changes from baseline” value (3.5 mg/kg, day 28)?
A: 499

Q: What about the “Tumor volume changes from baseline” value (3.5 mg/kg; day 19) of the same molecule?
A: 32 (207.6)

Q: And the “Tumor volume changes from baseline” value (3.5 mg/kg; day 22)?
A: 41 (108.2)

Q: What about the “Tumor volume changes from baseline” value (3.5 mg/kg; day 25) of the same molecule?
A: 180 (100.8)

Q: What about the “Tumor volume changes from baseline” value (3.5 mg/kg; day 28) of the same molecule?
A: 499 (324.7)

Q: What about the “Average body weight change in % per mouse at nadir” value [2] of the same molecule?
A: −4.2%

Q: And the Biological interpretation [2]?
A: highly active

Q: What about the Drug death [2] of the same molecule?
A: 0/7

Q: What about the “Regressions Complete” value [2] of the same molecule?
A: 0/7

Q: And the “Regressions Partial” value [2]?
A: 7/7

Q: And the “Tumor free survivors at day 120” value [2]?
A: 0/7

Q: What about the day of nadir [2] of the same molecule?
A: 16 days

Q: What about the Biological interpretation [3] of the same molecule?
A: Highly Active

Q: What about the “ΔT/ΔC in % (day 22)” value [3] of the same molecule?
A: <0%

Q: What about the PR (5.6 mg/kg per injection IV days 15; 19) of the same molecule?
A: 100%

Q: And the “Tumor volume changes from baseline” value (5.6 mg/kg, day 19)?
A: −31

Q: And the “Tumor volume changes from baseline” value (5.6 mg/kg, day 22)?
A: −126

Q: And the “Tumor volume changes from baseline” value (5.6 mg/kg, day 25)?
A: −157

Q: What about the “Tumor volume changes from baseline” value (5.6 mg/kg, day 28) of the same molecule?
A: −157

Q: And the “Tumor volume changes from baseline” value (5.6 mg/kg; day 19)?
A: −31 (87.5)

Q: What about the “Tumor volume changes from baseline” value (5.6 mg/kg; day 22) of the same molecule?
A: −126 (86)

Q: And the “Tumor volume changes from baseline” value (5.6 mg/kg; day 25)?
A: −157 (81.5)

Q: What about the “Tumor volume changes from baseline” value (5.6 mg/kg; day 28) of the same molecule?
A: −157 (81.5)

Q: And the “Tumor volume changes from baseline” value (5.6 mg/kg; day 32)?
A: −128 (112.7)

Q: What about the “Tumor volume changes from baseline” value (5.6 mg/kg; day 35) of the same molecule?
A: −157 (112.7)

Q: What about the “Average body weight change in % per mouse at nadir” value [4] of the same molecule?
A: −6.3%

Q: What about the Biological interpretation [4] of the same molecule?
A: highly active

Q: What about the Drug death [4] of the same molecule?
A: 0/7

Q: What about the “Regressions Complete” value [4] of the same molecule?
A: 0/7

Q: What about the “Regressions Partial” value [4] of the same molecule?
A: 7/7

Q: What about the “Tumor free survivors at day 120” value [4] of the same molecule?
A: 0/7

Q: What about the day of nadir [4] of the same molecule?
A: 16 days

Q: And the Biological interpretation [5]?
A: Highly Active

Q: And the “ΔT/ΔC in % (day 22)” value [5]?
A: <0%

Q: What about the PR (9 mg/kg per injection IV days 15; 19) of the same molecule?
A: 100%

Q: And the “Tumor volume changes from baseline” value (9 mg/kg, day 19)?
A: 25

Q: And the “Tumor volume changes from baseline” value (9 mg/kg, day 22)?
A: −137

Q: What about the “Tumor volume changes from baseline” value (9 mg/kg, day 25) of the same molecule?
A: −227

Q: What about the “Tumor volume changes from baseline” value (9 mg/kg, day 28) of the same molecule?
A: −227

Q: And the “Tumor volume changes from baseline” value (9 mg/kg; day 19)?
A: 25 (37.1)

Q: And the “Tumor volume changes from baseline” value (9 mg/kg; day 22)?
A: −137 (60.8)

Q: And the “Tumor volume changes from baseline” value (9 mg/kg; day 25)?
A: −227 (100.8)

Q: What about the “Tumor volume changes from baseline” value (9 mg/kg; day 28) of the same molecule?
A: −227 (100.8)

Q: And the “Tumor volume changes from baseline” value (9 mg/kg; day 32)?
A: −231 (78.6)

Q: What about the “Tumor volume changes from baseline” value (9 mg/kg; day 35) of the same molecule?
A: −231 (78.6)

Q: What about the “Average body weight change in % per mouse at nadir” value [6] of the same molecule?
A: −7.1%

Q: And the Biological interpretation [6]?
A: highly active

Q: And the Drug death [6]?
A: 0/7

Q: And the “Regressions Complete” value [6]?
A: 6/7

Q: And the “Regressions Partial” value [6]?
A: 7/7

Q: What about the “Tumor free survivors at day 120” value [6] of the same molecule?
A: 3/7

Q: What about the day of nadir [6] of the same molecule?
A: 20 days

Q: And the Biological interpretation [7]?
A: Highly Active

Q: What about the “ΔT/ΔC in % (day 22)” value [7] of the same molecule?
A: <0%

Q: And the “Tumor volume changes from baseline” value (14.5 mg/kg, day 19)?
A: −108

Q: What about the “Tumor volume changes from baseline” value (14.5 mg/kg, day 22) of the same molecule?
A: −203

Q: And the “Tumor volume changes from baseline” value (14.5 mg/kg, day 25)?
A: −221

Q: And the “Tumor volume changes from baseline” value (14.5 mg/kg, day 28)?
A: −221

Q: And the “Tumor volume changes from baseline” value (14.5 mg/kg; day 19)?
A: −108 (91.9)

Q: What about the “Tumor volume changes from baseline” value (14.5 mg/kg; day 22) of the same molecule?
A: −203 (87.5)

Q: What about the “Tumor volume changes from baseline” value (14.5 mg/kg; day 25) of the same molecule?
A: −221 (81.5)

Q: And the “Tumor volume changes from baseline” value (14.5 mg/kg; day 28)?
A: −221 (81.5)

Q: What about the “Tumor volume changes from baseline” value (14.5 mg/kg; day 32) of the same molecule?
A: −221 (87.5)

Q: What about the “Tumor volume changes from baseline” value (14.5 mg/kg; day 35) of the same molecule?
A: −221 (87.5)

Q: What about the “Tumor volume changes from baseline” value (14.5 mg/kg; day 39) of the same molecule?
A: −221 (108.2)

Q: And the “Tumor volume changes from baseline” value (14.5 mg/kg; day 41)?
A: −221 (140.8)

Q: What about the “Tumor volume changes from baseline” value (14.5 mg/kg; day 43) of the same molecule?
A: −221 (140.8)

Q: What about the “Tumor volume changes from baseline” value (14.5 mg/kg; day 45) of the same molecule?
A: −144 (222.4)

Q: What about the “antitumor activity compared with docetaxel” value (conclusion of example 3) of the same molecule?
A: more also active than docetaxel
